Data as given in patent US10821152B2, “Methods, agents and compositions for treatment of inflammatory conditions” (Betanien Hospital, priority 2014, dated 2020).
Non-standard residues stand in square brackets, D forms with d. Residues, ends and D or L forms follow the SMILES beside them. *: point of attachment. dPhe(4-NHCONH2) = NC(=O)Nc1ccc(C[C@@H](N)C(=O)O)cc1; Dihydroorotyl(S) = O=C1C[C@@H](C(=O)*)NC(=O)N1; dPhe(4-Cl) = N[C@H](Cc1ccc(Cl)cc1)C(=O)O; Phe(4-NH2) = Nc1ccc(C[C@H](N)C(=O)O)cc1; d2Nal = N[C@H](Cc1ccc2ccccc2c1)C(=O)O; Lys(iPr) = CC(C)NCCCC[C@H](N)C(=O)O; d3Pal = N[C@H](Cc1cccnc1)C(=O)O

What was measured:
Assay type in all cases: in vivo, human
[1] = test system: patient with seropositive rheumatoid arthritis; assay: Treatment of RA using Degarelix 40 mg weekly
Method: • person with seropositive rheumatoid arthritis with disease duration of 22 years. • Fulfilled ACR 2010 classification criteria for rheumatoid arthritis. Experimental Treatment • Had tried most therapies available (for example: Humira, Remicade, Enbrel, Actemra, several disease modifying anti-rheumatic drugs), previously without effect or intolerable side effects. • Offered experimental GnRH antagonist therapy, Degarelix 40 mg every week with 240 mg loading dose at baseline. Assessment of Response • Disease activity score (DAS) reduction from 7.3 to 6.7 at 2 weeks. • A DAS reduction of 0.6 units is defined as a clinical response to treatment (1). • Their ESR has decreased from 62 mm to 38 mm, with a decrease in their CRP from 87 mg/L to 67 mg/L.

[2] = test system: patient with spondyloarthritis; assay: Treatment of spondyloarthritis with Degarelix (BASDAI)
Method: • person, diagnosed with spondyloarthritis • Fulfilled the ASAS criteria for axial radiographic spondyloarthritis. Experimental Treatment • October 2014 received first dose of Degarelix 240 mg sc. • Received Degarelix 80 mg sc every two weeks thereafter. Assessment of Response Disease activity in ankylosing spondylitis/spondyloarthritis is measured by the BASDAI (Bath Ankylosing Spondylitis Disease Activity Index^1), has been extensively validated in clinical trials^2-3, and is one of the most commonly used outcome measures in clinical trials. This is a composite index that evaluates fatigue, axial and peripheral pain, stiffness and enthesopathy. Their BASDAI was at 3.8 at baseline. In October 2014 they received their first dose of Degarelix 240 mg sc. By 2 weeks, their BASDAI had reduced to 2.9, and by 8 weeks it had reduced to 1.3, remission. At 4 months, their BASDAI continues to be low at 1.5. • Response to therapy in clinical practice is defined as improvement of 2 units or 50% on a 0-10 scale of the BASDAI, and expert opinion that the treatment should be continued. Their reduction by 4 moths was 2.3 we shall continue treatment.

[3] = test system: patient with systemic sclerosis; assay: Treatment of systemic sclerosis; details: SSc patient
From the text: • person, diagnosed with systemic sclerosis • Fulfilled the 2013 EULAR/ACR classification criteria for systemic sclerosisl. • Diagnosis based upon Raynauds phenomenon, positive ANA, high titre anti-Scl 70 antibodies, marked skin changes typical of scleroderma, and esophageal dysmotility. • Previously tried Cyclophosphamide and Mycophenolate Mofetil. • Progressive disease and worsening scleroderma skin features, despite therapy. • Rapid progressive cardiac disease, verified by biopsy.
Experimental Treatment • 5th December 2014 received first dose of Degarelix 240 mg sc. • 9th January 2015 received second dose of Degarelix 80 mg sc.
[…] They are important factors in patients' evaluations of quality of life2. Their precise objective evaluation can be included in randomized controlled trials3. Their pathogenesis is unclear. Histologically, there is a plug-like hyperkeratosis with parakeratosis, homogenized collagen fibers and perivascular mononuclear cell infiltration4.

## CC(=O)N[C@H](Cc1ccc2ccccc2c1)C(=O)N[C@H](Cc1ccc(Cl)cc1)C(=O)N[C@H](Cc1cccnc1)C(=O)N[C@@H](CO)C(=O)N[C@@H](Cc1ccc(NC(=O)[C@@H]2CC(=O)NC(=O)N2)cc1)C(=O)N[C@H](Cc1ccc(NC(N)=O)cc1)C(=O)N[C@@H](CC(C)C)C(=O)N[C@@H](CCCCNC(C)C)C(=O)N1CCC[C@H]1C(=O)N[C@H](C)C(N)=O [Degarelix] (Ac-[d2Nal][dPhe(4-Cl)][d3Pal]S[Phe(4-NH2)](Dihydroorotyl(S))[dPhe(4-NHCONH2)]L[Lys(iPr)]P[dA]-NH2)
[1]; at 2 weeks, 240 mg loading, 40 mg weekly
  Disease activity score (DAS): 6.7
[1]; baseline
  CRP: 87 mg/L
  Disease activity score (DAS): 7.3
  ESR: 62 mm
[1]; on Degarelix 40 mg weekly
  CRP: 67 mg/L
  ESR: 38 mm
[2]; at 4 months
  BASDAI: 1.5
[2]; baseline
  BASDAI: 3.8
[2]; by 2 weeks
  BASDAI: 2.9
[2]; by 8 weeks (remission)
  BASDAI: 1.3
[3]; 5 weeks
  Digital tip ulcers/pitting scars: 2
  Modified Rodnan Skin Score: 40
  Sleep: 5 hrs/night
  VAS Fatigue: 75
  VAS Fingertip pain/pitting scars/ulcers: 40
  VAS Gastrointestinal Symptoms: 80
  VAS Global: 40
  VAS Lung/dyspnea: 80
  VAS Pain: 10
  VAS Raynauds/vascular: 40
[3]; 6 weeks
  Digital tip ulcers/pitting scars: 2
  Modified Rodnan Skin Score: 40
  Sleep: 5.5 hrs/night
  VAS Fatigue: 60
  VAS Fingertip pain/pitting scars/ulcers: 30
  VAS Gastrointestinal Symptoms: 60
  VAS Global: 40
  VAS Lung/dyspnea: 50
  VAS Pain: 10
  VAS Raynauds/vascular: 30
[3]; after 6 weeks of treatment (FIG. 12)
  fingertip pain score (0-100 mm): 30
[3]; baseline 5.12.14
  Digital tip ulcers/pitting scars: 5
  HAQ DI: 1.88
  Modified Rodnan Skin Score: 42
  Sleep: 2 hrs/night
  VAS Fatigue: 100
  VAS Fingertip pain/pitting scars/ulcers: 100
  VAS Gastrointestinal Symptoms: 100
  VAS Global: 100
  VAS Lung/dyspnea: 100
  VAS Pain: 100
  VAS Raynauds/vascular: 100
[3]; baseline prior to treatment (FIG. 11)
  fingertip pain score (0-100 mm): 100 mm
